Source: patent publication US6852317B2 (priority 2000, dated 2005)

System: Alternaria

Q: What does the source list for `Nc1nc2cccc(-c3ccc(CN4CCS(=O)(=O)CC4)cc3)n2n1` [metabolite]?
A: activity after heating (heating to 80 degrees C. for one hour): not lost; activity after treatment with acid (treated with acid): lost; score against Alternaria after acid treatment (treated with acid, score before treatment 0, 0-5 scale): 5; activity after treatment with base (treated with base): not lost
